Counter-ions that a name gives are not always drawn.
What was measured:
[1] = tested on: anaphylactic histamine release from lung fragments; test: Inhibition of anaphylactic histamine release (passively sensitized lung fragments, antigen challenge); type: cell-based, Hartley male guinea pig; settings: Cavia porcellus, 0.25 h; guinea pig lung fragments; DNP-egg albumin 0.3 μg/ml; compound added 10 min before antigen challenge; 37° C.; read-out: 25%-inhibitory conc. (anaphylactic histamine release)
Procedure: Inhibition of anaphylactic histamine release
Hartley male guinea pigs weighing about 450 g which were passively sensitized with an anti-DNP-egg albumin guinea pig serum were killed with a thiopentbarbital anesthetia. Their lungs were perfused by way of the pulmonary artery with a Tyrode's solution. The lungs were removed and fragmented. A definite weight of 100 mg lung fragments, which was distributed into individual tubes and suspended in 1 ml of Tyrode's solution, was challenged with the antigen (DNP-egg albumin, final concentration: 0.3 μg/ml) at 37° C. for 15 min. The test compounds obtained in Example, which were dissolved or suspended in Tyrode's solution, were added 10 min before antigen challenge. The reaction was stopped by immersing in ice cold water, and then centrifuged. The amount of histamine in the supernatant fluid was measured by using fluoremetric method according to Shore et al.
A: amount of histamine released by the antigen stimulation in the presence of a compound of the present invention
B: amount of histamine released spontaneously
C: amount of histamine released by the antigen stimulation.

isolated heart = test: Langendorff perfused isolated heart: perfusion pressure, contractive force, heart rate; parameters: species or system Wistar male rat; settings: for Contractive force (Δ %) / Heart rate (Δ %) / Perfusion pressure (Δ %): means value ± S.D., n = 3-4
Procedure: Hearts were isolated from Std; Wistar male rats weighing 200-300 g (9-10 weeks old). The hearts were perfused using Langendorff's apparatus at a flow rate of 8 ml/min. As a perfusate, Krebs-Henseleit-bicarbonate solution (37° C., pH 7.4) containing 11 mM glucose, oxygenated with a mixed gas of 95% O2 and 5% CO2 was used. The heart was preloaded with an initial resting tension of 2.0 g and paced at 200-300 beats min^-1. After the hearts were allowed to be stable for 30-60 minutes, 0.1 ml of a solution of each test compound in 10% DMSO was added thereto to be a concentration of 0.1, 1.0, 10 or 100 μg of each compound per heart.
Myocardial contractile force was isometrically measured by means of a force-displacement transducer (Type: TB-612T, made by Nihon Kohden Kogyo KK) connected to the apex of the heart through a thread. Coronary perfusion pressure was monitored by an electric manometer (Type: MPU-0.5, made by Nihon Kohden Kogyo KK) connected to a side branch of the aortic cannule.
[formula] A: value before adding a test compound B: value after adding a test compound

[2] = target: T1, histamine-induced constriction of tracheal smooth muscle (Cavia porcellus, UniProt P31389); test: Antihistaminic activity (isolated tracheal smooth muscle chain strips, histamine constriction); type: cell-based, Hartley male guinea pig; settings: guinea pig tracheal strip; compound 5 min prior to histamine; Van Rossum; read-out: pA2 (converted)
T1 construct: Isolated tracheal smooth muscle chain strips were prepared by a usual method; from tissue; host or cells: isolated tracheal smooth muscle chain strips of Hartley male guinea pigs
Procedure: Hartley male guinea pigs weighing 500-600 g were used. Isolated tracheal smooth muscle chain strips were prepared by a usual method and suspended in 2 ml organ bath of Tyrode's solution aerated with 95% O2.5 % CO2 at 37° C. Each strip was attached to an isotonic transducer (made by Nihon Koden Kogyo KK) with a load of 0.5 g. After almost constant contraction, histamine was added cumulatively, until maximum constriction was obtained. The constriction of tracheal strip was recorded by Servocorder (made by Giraphtec KK). The strip was washed with Tyrode's solution and allowed to stabilize. Test compound was to the bath 5 min prior to the addition of histamine and the response curve to the histamine was repeated. The pA2 values were calculated using the techniques of Van Rossum.

[3] = Acute oral toxicity (LD50); settings: mouse, in vivo, mice 22-27 g, ddY, male, 5 weeks
Procedure: The LD50 of the compounds obtained in Examples 1, 34, 37, 40 and 44 were more than 500 mg/kg when these compounds were given orally to mice weighing 22-27 g (ddY, male, 5 weeks).

[4] = 1 μg/heart, ** p <0.01 vs control
[5] = 10 μg/heart, ** p <0.01 vs control
[6] = 100 μg/heart, ** p <0.01 vs control

T1 sequence (P31389 whole entry): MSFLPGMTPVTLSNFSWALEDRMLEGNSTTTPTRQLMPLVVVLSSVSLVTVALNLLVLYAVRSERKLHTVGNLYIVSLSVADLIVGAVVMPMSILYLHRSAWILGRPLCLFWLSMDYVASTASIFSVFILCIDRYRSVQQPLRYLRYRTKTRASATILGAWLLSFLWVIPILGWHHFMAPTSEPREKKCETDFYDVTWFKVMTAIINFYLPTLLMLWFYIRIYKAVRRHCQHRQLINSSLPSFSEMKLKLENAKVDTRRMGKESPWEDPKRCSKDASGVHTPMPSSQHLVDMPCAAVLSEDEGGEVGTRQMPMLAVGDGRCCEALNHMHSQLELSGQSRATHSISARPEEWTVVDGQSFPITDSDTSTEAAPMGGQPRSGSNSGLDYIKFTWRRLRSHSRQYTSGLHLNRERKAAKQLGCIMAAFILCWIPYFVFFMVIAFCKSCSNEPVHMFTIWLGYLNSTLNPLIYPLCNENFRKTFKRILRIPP

SMILES | IC25 [1] [nM] | Contractive force (Δ %) (isolated heart; 0.1 μg/heart) [%] | Heart rate (Δ %) (isolated heart; 0.1 μg/heart) [%] | Heart rate (Δ %) (isolated heart; 1 μg/heart) [%] | Contractive force (Δ %) (isolated heart; [4]) [%] | Perfusion pressure (Δ %) (isolated heart; [4]) [%] | Contractive force (Δ %) (isolated heart; [5]) [%] | Heart rate (Δ %) (isolated heart; [5]) [%] | Perfusion pressure (Δ %) (isolated heart; [5]) [%] | Contractive force (Δ %) (isolated heart; [6]) [%] | Heart rate (Δ %) (isolated heart; [6]) [%] | Perfusion pressure (Δ %) (isolated heart; [6]) [%] | Kb [2] [nM] | LD50 [3] [mg/kg] | other results
CC(C)c1ccc2oc3nc(N)c(C(=O)O)cc3c(=O)c2c1 [Amlexanox, reference compound] | 30000 | – | – | – | – | – | – | – | – | – | – | – | – | – | –
COc1ccc([C@@H]2Sc3ccccc3N(CCN(C)C)C(=O)[C@@H]2OC(C)=O)cc1 [Diltiazem hydrochloride, reference compound] | – | 3.5 ± 6.9 | -2.7 ± 1.8 | -3.5 ± 2.4 | 7.0 ± 16.1 | -32.1 ± 6.9 | -67.1 ± 17.5 | -25.9 ± 30.3 | -47.1 ± 1.4 | -86.5 ± 7.0 | -71.4 ± 11.9 | -48.8 ± 1.4 | – | – | contractive force (in words) (isolated heart; 10 μg/heart): significant lowerings; heart rates (in words) (isolated heart; 10 μg/heart): significant lowerings
CS(=O)(=O)Nc1ccccc1OCCCN1CCC(OC(c2ccccc2)c2ccccc2)CC1 [Example 1, 4-diphenylmethoxy-1-[3-(2-methanesulfonylaminophenoxy)propyl]piperidine] | 1000 | 2.0 ± 3.6 | 0.7 ± 1.2 | -0.7 ± 1.2 | 11.9 ± 2.4 | -24.8 ± 3.0 | 11.8 ± 2.3 | -0.7 ± 1.2 | -42.9 ± 3.2 | -25.0 ± 6.8 | -16.6 ± 15.6 | -49.0 ± 4.8 | 2 | > 500 | Perfusion pressure (Δ %) (isolated heart; 0.1 μg/heart): -8.39 ± 3.4%
CS(=O)(=O)Nc1ccccc1OCCCN1CCC(OC(c2ccc(Cl)cc2)c2ccccn2)CC1 (stereo not drawn) [Example 33, 4-[(4-chlorophenyl)-2-pyridylmethoxy]-1-[3-(2-methanesulfonylaminophenoxy)propyl]piperidine] | – | 5.0 ± 4.3 | -1.2 ± 2.1 | -1.9 ± 1.8 | 13.3 ± 1.9 | -19.2 ± 2.2 | 16.0 ± 4.5 | -4.6 ± 4.7 | -39.1 ± 5.4 | -46.2 ± 13.4 | -17.2 ± 10.1 | -40.1 ± 5.2 | – | – | Perfusion pressure (Δ %) (isolated heart; 0.1 μg/heart): -7.0 ± 6.1%
CS(=O)(=O)Nc1ccccc1OCCCN1CCC(OC(c2ccccc2)c2cccnc2)CC1 (stereo not drawn) [Example 34 (fumarate)] | 1000 | – | – | – | – | – | – | – | – | – | – | – | 0.126 | – | –
CS(=O)(=O)Nc1ccccc1OCCCN1CCC(OC(c2ccccc2)c2cccnc2)CC1 (stereo not drawn) [Example 34, 4-(phenyl-3-pyridylmethoxy)-1-[3-(2-methanesulfonylaminophenoxy)propyl]piperidine] | – | – | – | – | – | – | – | – | – | – | – | – | – | > 500 | –
CS(=O)(=O)Nc1ccccc1OCCCN1CCC(OC(c2ccccc2)c2cccs2)CC1 (stereo not drawn) [Example 36 (fumarate)] | 100 | – | – | – | – | – | – | – | – | – | – | – | 2.51 | – | –
CC(CCOc1ccccc1NS(C)(=O)=O)N1CCC(OC(c2ccccc2)c2cccs2)CC1 (stereo not drawn) [Example 37, 4-(phenyl-2-thienylmethoxy)-1-[3-(2-methanesulfonylaminophenoxy)-1-methylpropyl]piperidine] | 100 | – | – | – | – | – | – | – | – | – | – | – | 3.98 | > 500 | –
CS(=O)(=O)Nc1ccccc1OC/C=C\CN1CCC(OC(c2ccccc2)c2cccs2)CC1 (stereo not drawn) [Example 40, 4-(phenyl-2-thienylmethoxy)-1-[4-(2-methanesulfonylaminophenoxy)-2(Z)-butenyl]piperidine] | 100 | – | – | – | – | – | – | – | – | – | – | – | 6.31 | > 500 | –
CS(=O)(=O)Nc1ccccc1OCCCN1CCC(OC(c2ccsc2)c2ccsc2)CC1 [Example 44 (fumarate)] | 30 | – | – | – | – | – | – | – | – | – | – | – | 2.51 | – | –
CS(=O)(=O)Nc1ccccc1OCCCN1CCC(OC(c2ccsc2)c2ccsc2)CC1 [Example 44, 4-di(3-thienyl)methoxy-1-[3-(2-methanesulfonylaminophenoxy)propyl]piperidine] | – | 8.8 ± 2.5 | -5.7 ± 1.4 | -3.6 ± 4.1 | 19.1 ± 5.7 | -28.9 ± 3.0 | 16.2 ± 11.3 | -6.3 ± 1.5 | -47.9 ± 4.8 | -46.3 ± 19.4 | -59.9 ± 11.1 | -55.8 ± 3.5 | – | > 500 | Perfusion pressure (Δ %) (isolated heart; 0.1 μg/heart): -6.0 ± 13.7%
O=c1[nH]c2ccccc2n1CCCN1CCN(C(c2ccccc2)c2ccccc2)CC1 [Oxatomide, reference compound] | 100000 | – | – | – | – | – | – | – | – | – | – | – | 1.26 | – | –
